Laboratory results as given in US20250230171A1 (MOMA Therapeutics, Inc., priority 2023, published 2025).

molecular target: biotinylated Avi-POLθ[2-894] (Homo sapiens (Human), UniProt O75417); assay: POLθ ATPase assay (ADP-Glo); conditions: n=2; read-out: Biochemical ATPase ADPGlo IC50
Sequence (O75417 2-894): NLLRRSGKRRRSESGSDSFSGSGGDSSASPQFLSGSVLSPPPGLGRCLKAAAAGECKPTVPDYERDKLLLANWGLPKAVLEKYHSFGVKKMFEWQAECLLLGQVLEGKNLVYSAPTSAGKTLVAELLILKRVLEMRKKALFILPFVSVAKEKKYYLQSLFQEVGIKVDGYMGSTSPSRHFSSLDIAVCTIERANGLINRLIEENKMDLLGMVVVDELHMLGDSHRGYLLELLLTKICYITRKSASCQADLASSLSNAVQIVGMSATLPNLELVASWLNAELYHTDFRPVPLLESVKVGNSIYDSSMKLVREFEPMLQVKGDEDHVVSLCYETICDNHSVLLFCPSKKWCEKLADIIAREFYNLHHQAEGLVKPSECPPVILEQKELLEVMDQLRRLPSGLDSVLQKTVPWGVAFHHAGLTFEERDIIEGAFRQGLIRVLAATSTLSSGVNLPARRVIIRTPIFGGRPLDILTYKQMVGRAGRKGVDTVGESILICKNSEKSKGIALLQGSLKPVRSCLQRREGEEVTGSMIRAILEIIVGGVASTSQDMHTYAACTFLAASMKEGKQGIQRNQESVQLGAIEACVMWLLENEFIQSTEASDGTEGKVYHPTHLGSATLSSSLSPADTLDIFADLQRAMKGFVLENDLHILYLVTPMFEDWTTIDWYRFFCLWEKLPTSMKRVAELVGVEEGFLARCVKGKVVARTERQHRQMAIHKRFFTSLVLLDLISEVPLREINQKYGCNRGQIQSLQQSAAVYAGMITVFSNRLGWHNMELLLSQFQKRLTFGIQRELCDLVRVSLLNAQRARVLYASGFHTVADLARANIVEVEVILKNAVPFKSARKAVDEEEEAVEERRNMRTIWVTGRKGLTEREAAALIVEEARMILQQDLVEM

First: COc1cnc(Cl)cc1-c1cc(C)ncc1C(=O)Nc1nc2c(s1)CN(C(=O)c1cnn(C(C)C)c1)C2 [Example 85, 2′-chloro-N-(5-(1-isopropyl-1H-pyrazole-4-carbonyl)-5,6-dihydro-4H-pyrrolo[3,4-d]thiazol-2-yl)-5′-methoxy-6-methyl-[4,4′-bipyridine]-3-carboxamide]
Second: COc1cnc(Cl)cc1-c1cc(C)ncc1C(=O)Nc1nc2c(s1)CN(C(=O)c1cnn(C)c1C)C2 [Example 87, 2′-chloro-N-(5-(1,5-dimethyl-1H-pyrazole-4-carbonyl)-5,6-dihydro-4H-pyrrolo[3,4-d]thiazol-2-yl)-5′-methoxy-6-methyl-[4,4′-bipyridine]-3-carboxamide]
The IC50 of the first is lower: 1 to 15 nM for the first, 15 to 50 nM for the second.

`COc1cnc(Cl)cc1-c1cc(C)ncc1C(=O)Nc1nc2c(s1)CN(C(=O)c1cnn(C)c1C(F)F)C2` [Example 91, 2′-chloro-N-(5-(5-(difluoromethyl)-1-methyl-1H-pyrazole-4-carbonyl)-5,6-dihydro-4H-pyrrolo[3,4-d]thiazol-2-yl)-5′-methoxy-6-methyl-[4,4′-bipyridine]-3-carboxamide] and `COc1cnc(Cl)cc1-c1cc(C)ncc1C(=O)Nc1nc2c(s1)CN(C(=O)c1cn(C)nc1C(F)F)C2` [Example 173] fall in the same range of IC50: 1 to 15 nM for the first, 1 to 15 nM for the second.

First: COc1cnc(Cl)cc1-c1cc(C)ncc1C(=O)Nc1nc2c(s1)CN(C(=O)c1cc(O)n(C)n1)C2 [Example 92, 2′-chloro-N-(5-(5-hydroxy-1-methyl-1H-pyrazole-3-carbonyl)-5,6-dihydro-4H-pyrrolo[3,4-d]thiazol-2-yl)-5′-methoxy-6-methyl-[4,4′-bipyridine]-3-carboxamide]
Second: COc1cnc(Cl)cc1-c1cc(C)ncc1C(=O)Nc1nc2c(s1)CN(C(=O)c1ncco1)C2 [Example 182]
The IC50 of the first is higher: 15 to 50 nM for the first, 1 to 15 nM for the second. The second is the more potent here.

First: COc1cnc(Cl)cc1-c1cc(C)ncc1C(=O)Nc1nc2c(s1)CN(C(=O)[C@H]1CC[C@H](O)CC1)C2 [Example 96, 2′-chloro-N-(5-((1r,4r)-4-hydroxycyclohexane-1-carbonyl)-5,6-dihydro-4H-pyrrolo[3,4-d]thiazol-2-yl)-5′-methoxy-6-methyl-[4,4′-bipyridine]-3-carboxamide]
Second: COc1cnc(Cl)cc1-c1cc(C)ncc1C(=O)Nc1nc2c(s1)CN(C(=O)[C@H]1CC[C@@H](O)CC1)C2 [Example 115]
The IC50 of the first is lower: 1 to 15 nM for the first, 15 to 50 nM for the second. The first is the more potent here.

First: COc1cn2cncc2cc1-c1cc(C)ncc1C(=O)Nc1nc2c(s1)CN(C(=O)[C@H]1C[C@@H](OC(F)(F)F)C1)C2 [Example 97, 4-(6-methoxyimidazo[1,5-a]pyridin-7-yl)-6-methyl-N-(5-((1s,3s)-3-(trifluoromethoxy)cyclobutane-1-carbonyl)-5,6-dihydro-4H-pyrrolo[3,4-d]thiazol-2-yl)nicotinamide]
Second: COc1cnc(Cl)cc1-c1cc(C)ncc1C(=O)Nc1nc2c(s1)CN(C(=O)C1CN(CC(F)(F)F)C1)C2 [Example 120]
The IC50 of the first is lower: 1 to 15 nM for the first, 15 to 50 nM for the second.

First: COc1cnccc1-c1cc(C)ncc1C(=O)Nc1nc2c(s1)CN(C(=O)c1ccccn1)C2 [Example 98, 3′-methoxy-6-methyl-N-(5-picolinoyl-5,6-dihydro-4H-pyrrolo[3,4-d]thiazol-2-yl)-[4,4′-bipyridine]-3-carboxamide]
Second: COc1cnc(C)cc1-c1cc(C)ncc1C(=O)Nc1nc2c(s1)CN(C(=O)c1ccccn1)C2 [Example 108, 5′-methoxy-2′,6-dimethyl-N-(5-picolinoyl-5,6-dihydro-4H-pyrrolo[3,4-d]thiazol-2-yl)-[4,4′-bipyridine]-3-carboxamide]
The IC50 of the first is higher: 150 to 900 nM for the first, 15 to 50 nM for the second.

Compared with `COc1cnc(Cl)cc1-c1cc(C)ncc1C(=O)Nc1nc2c(s1)CC(N[C@H]1C[C@@H](O)C1)CC2` (stereo partly drawn) [Example 99, 2′-chloro-N-(6-(((1s,3s)-3-hydroxycyclobutyl)amino)-4,5,6,7-tetrahydrobenzo[d]thiazol-2-yl)-5′-methoxy-6-methyl-[4,4′-bipyridine]-3-carboxamide], `COc1cnc(Cl)cc1-c1cc(C)ncc1C(=O)Nc1nc2c(s1)C[C@@H](NC(=O)C1CC1)CC2` [Example 200] is lower in IC50: ≥ 900 nM for the first, 50 to 150 nM for the second.

`COc1cnc(Cl)cc1-c1cc(C)ncc1C(=O)Nc1nc2c(s1)CN(C(=O)c1ncccn1)C2` [Example 100, 2′-chloro-5′-methoxy-6-methyl-N-(5-(pyrimidine-2-carbonyl)-5,6-dihydro-4H-pyrrolo[3,4-d]thiazol-2-yl)-[4,4′-bipyridine]-3-carboxamide] and `COc1cnc(Cl)cc1-c1cc(C)ncc1C(=O)Nc1nc2c(s1)CN(C(=O)c1ccnn1CC(F)F)C2` [Example 143, 2′-chloro-N-(5-(1-(2,2-difluoroethyl)-1H-pyrazole-5-carbonyl)-5,6-dihydro-4H-pyrrolo[3,4-d]thiazol-2-yl)-5′-methoxy-6-methyl-[4,4′-bipyridine]-3-carboxamide] fall in the same range of IC50: 1 to 15 nM for the first, 1 to 15 nM for the second.

First: COc1cnc(Cl)cc1-c1cc(C)ncc1C(=O)Nc1nc2c(s1)CN(C(=O)[C@@H]1C[C@H]1CO)C2 [Example 102, 2′-chloro-N-(5-((1R,2R)-2-(hydroxymethyl)cyclopropane-1-carbonyl)-5,6-dihydro-4H-pyrrolo[3,4-d]thiazol-2-yl)-5′-methoxy-6-methyl-[4,4′-bipyridine]-3-carboxamide]
Second: COc1cnc(Cl)cc1-c1cc(C)ncc1C(=O)Nc1nc2c(s1)CN(C(=O)[C@@H]1C[C@@H]1CO)C2 [Example 107, 2′-chloro-N-(5-((1R,2S)-2-(hydroxymethyl)cyclopropane-1-carbonyl)-5,6-dihydro-4H-pyrrolo[3,4-d]thiazol-2-yl)-5′-methoxy-6-methyl-[4,4′-bipyridine]-3-carboxamide]
The IC50 of the first is lower: 1 to 15 nM for the first, 50 to 150 nM for the second.

Compared with `COc1cnc(Cl)cc1-c1cc(C)ncc1C(=O)Nc1nc2c(s1)CN(C(=O)[C@@H]1C[C@@H]1C(F)F)C2` [Example 104, 2′-chloro-N-(5-((1R,2S)-2-(difluoromethyl)cyclopropane-1-carbonyl)-5,6-dihydro-4H-pyrrolo[3,4-d]thiazol-2-yl)-5′-methoxy-6-methyl-[4,4′-bipyridine]-3-carboxamide], `COc1cnc(Cl)cc1-c1cc(C)ncc1C(=O)Nc1nc2c(s1)CN(C(=O)[C@H]1C[C@](O)(C(F)F)C1)C2` [Example 195] is lower in IC50: 15 to 50 nM for the first, 1 to 15 nM for the second. The second is the more potent here.

Compared with `COc1cnc(Cl)cc1-c1cc(C)ncc1C(=O)Nc1nc2c(s1)CN(C(=O)[C@H]1C[C@](F)(CO)C1)C2` [Example 105, 2′-chloro-N-(5-((1s,3s)-3-fluoro-3-(hydroxymethyl)cyclobutane-1-carbonyl)-5,6-dihydro-4H-pyrrolo[3,4-d]thiazol-2-yl)-5′-methoxy-6-methyl-[4,4′-bipyridine]-3-carboxamide], `COc1cnc(Cl)cc1-c1cc(C)ncc1C(=O)Nc1nc2c(s1)CN(C(=O)[C@H]1C[C@@](F)(CO)C1)C2` [Example 106, 2′-chloro-N-(5-((1r,3r)-3-fluoro-3-(hydroxymethyl)cyclobutane-1-carbonyl)-5,6-dihydro-4H-pyrrolo[3,4-d]thiazol-2-yl)-5′-methoxy-6-methyl-[4,4′-bipyridine]-3-carboxamide] is lower in IC50: 15 to 50 nM for the first, 1 to 15 nM for the second.

`COc1cnc(Cl)cc1-c1cc(C)ncc1C(=O)Nc1nc2c(s1)CN(C(=O)C1CCC(O)(C(F)(F)F)CC1)C2` (stereo not drawn) [Example 112] and `COc1cnc(Cl)cc1-c1cc(C)ncc1C(=O)Nc1nc2c(s1)CN(C(=O)C1CC(O)(C(F)(F)F)C1)C2` (stereo not drawn) [Example 204] fall in the same range of IC50: 1 to 15 nM for the first, 1 to 15 nM for the second.

`COc1cnc(Cl)cc1-c1cc(C)ncc1C(=O)Nc1nc2c(s1)CN(C(=O)C1CC(OC(C)C)C1)C2` (stereo not drawn) [Example 119] and `COc1cnc(Cl)cc1-c1cc(C)ncc1C(=O)Nc1nc2c(s1)CN(C(=O)[C@H]1C[C@@H](O)C1)C2` [Example 185] fall in the same range of IC50: 1 to 15 nM for the first, 1 to 15 nM for the second.

`COc1cn2cncc2cc1-c1cc(C)ncc1C(=O)Nc1nc2c(s1)CN(C(=O)c1cccnc1OC)C2` [Example 124] and `COc1cnc(Cl)cc1-c1cc(C)ncc1C(=O)Nc1nc2c(s1)CN(C(=O)[C@H]1C[C@@](C)(O)C1)C2` [Example 193] fall in the same range of IC50: 1 to 15 nM for the first, 1 to 15 nM for the second.

Compared with `COc1cnc(Cl)cc1-c1cc(C)ncc1C(=O)Nc1nc2c(s1)CN(C(=O)N1CC[C@@H](O)C1)C2` [Example 129], `COc1cnc(Cl)cc1-c1cc(C)ncc1C(=O)Nc1nc2c(s1)CN(C(=O)N1CC(O)C1)C2` [Example 149] is higher in IC50: 1 to 15 nM for the first, 50 to 150 nM for the second. The first is the more potent here.

First: COc1ccc(C#N)cc1-c1cc(C)ncc1C(=O)Nc1nc2c(s1)CN(C(=O)C1CC(OC(F)F)C1)CC2 (stereo not drawn) [Example 176]
Second: COc1ccc(C#N)cc1-c1cc(C)ncc1C(=O)Nc1nc2c(s1)CN(C(=O)C1CCC1)CC2 [Example 224]
The IC50 of the first is lower: 50 to 150 nM for the first, 150 to 900 nM for the second. The first is the more potent here.

`COc1cnc(Cl)cc1-c1cc(C)ncc1C(=O)Nc1nc2c(s1)CN(C(=O)C1CCC(O)C1)C2` (stereo not drawn) [Example 180] and `COc1cnc(Cl)cc1-c1cc(C)ncc1C(=O)Nc1nc2c(s1)CN(C(=O)[C@H]1C[C@H](O)C1)C2` [Example 187] fall in the same range of IC50: 1 to 15 nM for the first, 1 to 15 nM for the second.

`COc1cnc(Cl)cc1-c1cc(C)ncc1C(=O)Nc1nc2c(s1)CN(C(=O)[C@@H]1CCOC1)C2` [Example 181] and `COc1cnc(Cl)cc1-c1cc(C)ncc1C(=O)Nc1nc2c(s1)CN(C(=O)[C@H]1CCCOC1)C2` [Example 183] fall in the same range of IC50: 1 to 15 nM for the first, 1 to 15 nM for the second.

`COc1cnc(Cl)cc1-c1cc(C)ncc1C(=O)Nc1nc2c(s1)CN(C(=O)C1CCOCC1)C2` [Example 184] and `COc1cnc(Cl)cc1-c1cc(C)ncc1C(=O)Nc1nc2c(s1)CN(C(=O)C1CC3(COC3)C1)C2` [Example 192] fall in the same range of IC50: 1 to 15 nM for the first, 1 to 15 nM for the second.

`COc1cnc(Cl)cc1-c1cc(C)ncc1C(=O)Nc1nc2c(s1)CN(C(=O)[C@H]1CCCCO1)C2` [Example 186] and `COc1ccc(C#N)cc1-c1cc(C)ncc1C(=O)Nc1nc2c(s1)CN(C(=O)C1CC(C)C1)C2` (stereo not drawn) [Example 189] fall in the same range of IC50: 1 to 15 nM for the first, 1 to 15 nM for the second.

`COc1ccc(C#N)cc1-c1cc(C)ncc1C(=O)Nc1nc2c(s1)CN(C(=O)C1CC1OC)CC2` (stereo not drawn) [Example 207] and `COc1ccc(C#N)cc1-c1cc(C)ncc1C(=O)Nc1nc2c(s1)CN(C(=O)C1CC1C)CC2` (stereo not drawn) [Example 211] fall in the same range of IC50: 15 to 50 nM for the first, 15 to 50 nM for the second.

First: COc1ccc(C#N)cc1-c1cc(C)ncc1C(=O)Nc1nc2c(s1)CN(S(=O)(=O)C1COC1)C2 [Example 217]
Second: COc1ccc(C#N)cc1-c1cc(C)ncc1C(=O)Nc1nc2c(s1)CN(C(=O)[C@H]1C[C@H](OC)C1)C2 [Example 221]
The IC50 of the first is higher: 50 to 150 nM for the first, 15 to 50 nM for the second. The second is the more potent here.

`COc1ccc(C#N)cc1-c1cc(C)ncc1C(=O)Nc1nc2c(s1)CN(C(=O)[C@@H]1CCCOC1)CC2` [Example 223] showed an IC50 of 150 to 900 nM.
